Among the data in patent US7528253B2, “Compounds having β2 adrenergic receptor agonist and muscarinic receptor antagonist activity” (Theravance, Inc., priority 2004, dated 2009) are Ki values, retold here.

In assay [1] the target is T1, M3 muscarinic receptor (hM3) (Homo sapiens, UniProt P20309).
T1 construct: expressed in transfected cells; membranes prepared
Briefly: Radioligand binding assay for muscarinic receptors (Assay Test Procedure B). The settings on record: displacement of [3H]-NMS, CHO cell membranes. The protocol: CHO cell lines stably expressing cloned human hM1, hM2, hM3 and hM4 muscarinic receptor subtypes, respectively, were grown to near confluency in HAM's F-12 media supplemented with 10% FBS and 250 μg/mL Geneticin. The cells were grown in a 5% CO2, 37° C. incubator and lifted with 2 mM EDTA in dPBS. Cells were collected by 5 minute centrifugation at 650× g, and cell pellets were either stored frozen at −80° C. or membranes were prepared immediately for use. For membrane preparation, cell pellets were resuspended in lysis buffer and homogenized with a Polytron PT-2100 tissue disrupter (Kinematica AG; 20 seconds×2 bursts). Crude membranes were centrifuged at 40,000× g for 15 minutes at 4° C. […] The protein concentration of the membrane suspension was determined by the method described in Lowry et al., 1951, Journal of Biochemistry, 193, 265. […]
Radioligand binding assays for cloned human muscarinic receptors were performed in 96-well microtiter plates in a total assay volume of 100 μL. […] Filter plates were rinsed three times with wash buffer (10 mM HEPES) to remove unbound radioactivity. […] The plates were then counted in a PerkinElmer Topcount liquid scintillation counter (PerkinElmer Inc., Wellesley, Mass.). Binding data were analyzed by nonlinear regression analysis with the GraphPad Prism Software package (GraphPad Software, Inc., San Diego, Calif.) using the one-site competition model. […]
A general note: In a radioligand displacement assay an active substance lowers the binding of a labelled ligand.

Assay [2] concerns the target T2, human β2 adrenergic receptor (Homo sapiens, UniProt P07550).
T2 construct: expressed in transfected cells; membranes prepared
Put plainly: Radioligand binding assay for human β2 adrenergic receptor (Assay Test Procedure A). Particulars: displacement of [3H]-dihydroalprenolol, CHO membranes. The protocol: Chinese hamster ovarian (CHO) cell lines stably expressing cloned human β1, β2 or β3 adrenergic receptors, respectively, were grown to near confluency in Hams F-12 media with 10% FBS in the presence of 500 μg/mL Geneticin. The cell monolayer was lifted with 2 mM EDTA in PBS. Cells were pelleted by centrifugation at 1,000 rpm, and cell pellets were either stored frozen at −80° C. or membranes were prepared immediately for use. For preparation of β1 and β2 receptor expressing membranes, cell pellets were re-suspended in lysis buffer (10 mM HEPES/HCl, 10 mM EDTA, pH 7.4 at 4° C.) and homogenized using a tight-fitting Dounce glass homogenizer (30 strokes) on ice. […] The protein concentration of the membrane suspension was determined by the methods described in Lowry et al., 1951, Journal of Biological Chemistry, 193, 265; and Bradford, Analytical Biochemistry, 1976, 72, 248-54. […]
Binding assays were performed in 96-well microtiter plates in a total assay volume of 100 μL with 10-15 μg of membrane protein containing the human β1, β2 or β3 adrenergic receptors in assay buffer (75 mM Tris/HCl pH 7.4 at 25° C., 12.5 mM MgCl2, 1 mM EDTA, 0.2% BSA). […] Non-specific binding was determined in the presence of 10 μM propranolol. […] Filter plates were washed three times with filtration buffer (75 mM Tris/HCl pH 7.4 at 4° C., 12.5 mM MgCl2, 1 mM EDTA) to remove unbound radioactivity. […]

T2 sequence (P07550 whole entry): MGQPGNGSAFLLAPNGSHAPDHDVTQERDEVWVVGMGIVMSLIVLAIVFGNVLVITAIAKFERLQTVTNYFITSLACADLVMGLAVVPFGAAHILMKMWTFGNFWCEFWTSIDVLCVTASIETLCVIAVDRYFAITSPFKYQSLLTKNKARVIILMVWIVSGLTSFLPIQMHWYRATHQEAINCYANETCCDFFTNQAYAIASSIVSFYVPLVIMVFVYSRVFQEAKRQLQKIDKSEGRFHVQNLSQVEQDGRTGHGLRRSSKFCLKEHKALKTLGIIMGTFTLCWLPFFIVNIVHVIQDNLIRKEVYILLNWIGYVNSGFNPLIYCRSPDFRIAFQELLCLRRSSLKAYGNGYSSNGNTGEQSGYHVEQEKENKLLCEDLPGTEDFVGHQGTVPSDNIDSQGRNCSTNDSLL
T1 sequence (P20309 whole entry): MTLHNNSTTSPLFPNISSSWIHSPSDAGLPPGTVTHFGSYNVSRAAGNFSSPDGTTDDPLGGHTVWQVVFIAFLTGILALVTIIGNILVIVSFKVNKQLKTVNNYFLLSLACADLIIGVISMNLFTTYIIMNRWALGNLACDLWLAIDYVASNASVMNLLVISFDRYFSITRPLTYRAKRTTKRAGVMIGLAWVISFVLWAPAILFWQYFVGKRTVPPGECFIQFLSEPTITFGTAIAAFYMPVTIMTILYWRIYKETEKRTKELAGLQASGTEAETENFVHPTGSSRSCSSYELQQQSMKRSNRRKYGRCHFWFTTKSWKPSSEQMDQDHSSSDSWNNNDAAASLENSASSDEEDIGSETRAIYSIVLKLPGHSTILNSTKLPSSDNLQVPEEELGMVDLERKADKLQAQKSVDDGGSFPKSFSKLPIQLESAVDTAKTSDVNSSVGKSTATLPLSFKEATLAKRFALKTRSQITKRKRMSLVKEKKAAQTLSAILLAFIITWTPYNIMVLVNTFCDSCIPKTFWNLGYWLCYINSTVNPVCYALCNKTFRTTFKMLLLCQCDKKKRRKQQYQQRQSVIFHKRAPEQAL

A word on the Ki: it is a measure of affinity in units of concentration, obtained from inhibition or displacement. As to `CN(CCCCCCCCCNC[C@H](O)c1ccc(O)c2[nH]c(=O)ccc12)CCC(C)(C)OC(=O)Nc1ccccc1-c1ccccc1` [Example 1, Biphenyl-2-ylcarbamic Acid 3-({9-[(R)-2-Hydroxy-2-(8-hydroxy-2-oxo-1,2-dihydro-quinolin-5-yl)ethylamino]nonyl}methylamino)-1,1-dimethylpropyl Ester], the inhibition constant Ki in assay [1] and in assay [2] was below 300 nM throughout.
